The target of assay [1] is T1, HiBit-BRM fusion protein (Homo sapiens, UniProt P51531).
T1 construct: expressed in transfected cells
The assay can be described thus: HiBiT-BRM cell-based degradation assay (Nano-Glo HiBiT Lytic Detection, 24 h). To be noted: HeLa cells expressing HiBiT-BRM; for DC50: read-out: BRM HiBit Degradation IC50; for BRM HiBit Degradation Maximum measured: top dose 30 μM. The procedure, abridged:
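Luminescence from reconstituted NanoBiT luciferase in lysed HeLa HiBiT-BRM cells served as the measure of remaining BRM after 24 h treatment. Compounds were tested from 30 μM final downward in 3-fold steps. DMSO and 2 μM of a standard BRM/BRG1 degrader defined the scale limits.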

The target of assay [2] is T2, HiBit-BRG1 fusion protein (Homo sapiens, UniProt P51532).
T2 construct: expressed in transfected cells
Description: HiBiT-BRG1 cell-based degradation assay (Nano-Glo HiBiT Lytic Detection, 24 h). To be noted: HeLa cells expressing HiBit-BRG1 and LgBit; for DC50: read-out: BRG1 HiBit Degradation IC50; for Dmax: HeLa, top dose 30 μM, read-out: BRG1 HiBit Degradation Maximum measured. The procedure, abridged: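 Stable HeLa line expressing HiBiT-BRG1 and LgBiT, seeded at 5000 cells/well; luminescence read after lytic Nano-Glo HiBiT reagent and 10 min shaking at RT. % degradation normalised between DMSO (high control) and 2 μM reference BRM/BRG1 degrader (low control).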
Background: HiBiT is a short tag that completes a luciferase, so light tracks the accessible tagged protein.

T1 sequence (P51531 whole entry, the tested form may be a part): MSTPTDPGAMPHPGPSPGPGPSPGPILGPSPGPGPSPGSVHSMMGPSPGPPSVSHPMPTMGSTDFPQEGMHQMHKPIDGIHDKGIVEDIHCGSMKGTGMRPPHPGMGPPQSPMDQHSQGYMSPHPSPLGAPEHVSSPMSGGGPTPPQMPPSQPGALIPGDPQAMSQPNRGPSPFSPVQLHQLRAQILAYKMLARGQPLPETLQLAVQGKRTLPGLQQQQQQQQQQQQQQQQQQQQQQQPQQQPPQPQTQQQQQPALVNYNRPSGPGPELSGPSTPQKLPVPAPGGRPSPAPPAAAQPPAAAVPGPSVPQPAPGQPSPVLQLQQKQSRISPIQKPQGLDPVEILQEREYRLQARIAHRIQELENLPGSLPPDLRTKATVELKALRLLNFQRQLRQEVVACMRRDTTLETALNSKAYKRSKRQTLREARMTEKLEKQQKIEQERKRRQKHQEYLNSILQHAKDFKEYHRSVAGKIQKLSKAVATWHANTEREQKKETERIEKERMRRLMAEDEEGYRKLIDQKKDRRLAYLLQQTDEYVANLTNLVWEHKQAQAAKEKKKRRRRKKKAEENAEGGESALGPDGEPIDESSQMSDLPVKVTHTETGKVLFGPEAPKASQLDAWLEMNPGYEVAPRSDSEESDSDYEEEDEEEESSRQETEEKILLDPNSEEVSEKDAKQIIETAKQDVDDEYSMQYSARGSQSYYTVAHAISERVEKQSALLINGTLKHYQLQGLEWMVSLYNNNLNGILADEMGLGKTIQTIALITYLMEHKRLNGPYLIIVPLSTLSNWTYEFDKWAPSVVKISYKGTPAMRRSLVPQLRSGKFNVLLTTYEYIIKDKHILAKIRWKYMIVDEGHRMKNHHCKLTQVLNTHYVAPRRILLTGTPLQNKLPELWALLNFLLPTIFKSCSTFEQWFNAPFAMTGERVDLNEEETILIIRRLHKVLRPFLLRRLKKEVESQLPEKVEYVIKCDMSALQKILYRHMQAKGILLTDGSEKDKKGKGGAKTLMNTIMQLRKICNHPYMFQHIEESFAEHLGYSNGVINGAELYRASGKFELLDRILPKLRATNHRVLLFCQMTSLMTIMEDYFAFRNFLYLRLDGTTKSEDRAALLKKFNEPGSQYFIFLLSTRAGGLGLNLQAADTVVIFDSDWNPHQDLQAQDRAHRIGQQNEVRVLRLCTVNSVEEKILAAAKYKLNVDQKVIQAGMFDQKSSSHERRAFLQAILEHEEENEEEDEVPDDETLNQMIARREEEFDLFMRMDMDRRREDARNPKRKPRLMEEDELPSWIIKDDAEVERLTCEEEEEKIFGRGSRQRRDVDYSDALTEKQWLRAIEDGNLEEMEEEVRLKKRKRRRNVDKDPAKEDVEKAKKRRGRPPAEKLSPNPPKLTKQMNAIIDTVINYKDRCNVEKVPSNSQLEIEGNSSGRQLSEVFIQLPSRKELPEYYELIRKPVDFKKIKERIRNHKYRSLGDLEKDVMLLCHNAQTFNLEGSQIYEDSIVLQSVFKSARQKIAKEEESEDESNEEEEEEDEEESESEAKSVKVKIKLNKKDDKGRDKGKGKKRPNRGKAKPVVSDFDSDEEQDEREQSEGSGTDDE
T2 sequence (P51532 whole entry, the tested form may be a part): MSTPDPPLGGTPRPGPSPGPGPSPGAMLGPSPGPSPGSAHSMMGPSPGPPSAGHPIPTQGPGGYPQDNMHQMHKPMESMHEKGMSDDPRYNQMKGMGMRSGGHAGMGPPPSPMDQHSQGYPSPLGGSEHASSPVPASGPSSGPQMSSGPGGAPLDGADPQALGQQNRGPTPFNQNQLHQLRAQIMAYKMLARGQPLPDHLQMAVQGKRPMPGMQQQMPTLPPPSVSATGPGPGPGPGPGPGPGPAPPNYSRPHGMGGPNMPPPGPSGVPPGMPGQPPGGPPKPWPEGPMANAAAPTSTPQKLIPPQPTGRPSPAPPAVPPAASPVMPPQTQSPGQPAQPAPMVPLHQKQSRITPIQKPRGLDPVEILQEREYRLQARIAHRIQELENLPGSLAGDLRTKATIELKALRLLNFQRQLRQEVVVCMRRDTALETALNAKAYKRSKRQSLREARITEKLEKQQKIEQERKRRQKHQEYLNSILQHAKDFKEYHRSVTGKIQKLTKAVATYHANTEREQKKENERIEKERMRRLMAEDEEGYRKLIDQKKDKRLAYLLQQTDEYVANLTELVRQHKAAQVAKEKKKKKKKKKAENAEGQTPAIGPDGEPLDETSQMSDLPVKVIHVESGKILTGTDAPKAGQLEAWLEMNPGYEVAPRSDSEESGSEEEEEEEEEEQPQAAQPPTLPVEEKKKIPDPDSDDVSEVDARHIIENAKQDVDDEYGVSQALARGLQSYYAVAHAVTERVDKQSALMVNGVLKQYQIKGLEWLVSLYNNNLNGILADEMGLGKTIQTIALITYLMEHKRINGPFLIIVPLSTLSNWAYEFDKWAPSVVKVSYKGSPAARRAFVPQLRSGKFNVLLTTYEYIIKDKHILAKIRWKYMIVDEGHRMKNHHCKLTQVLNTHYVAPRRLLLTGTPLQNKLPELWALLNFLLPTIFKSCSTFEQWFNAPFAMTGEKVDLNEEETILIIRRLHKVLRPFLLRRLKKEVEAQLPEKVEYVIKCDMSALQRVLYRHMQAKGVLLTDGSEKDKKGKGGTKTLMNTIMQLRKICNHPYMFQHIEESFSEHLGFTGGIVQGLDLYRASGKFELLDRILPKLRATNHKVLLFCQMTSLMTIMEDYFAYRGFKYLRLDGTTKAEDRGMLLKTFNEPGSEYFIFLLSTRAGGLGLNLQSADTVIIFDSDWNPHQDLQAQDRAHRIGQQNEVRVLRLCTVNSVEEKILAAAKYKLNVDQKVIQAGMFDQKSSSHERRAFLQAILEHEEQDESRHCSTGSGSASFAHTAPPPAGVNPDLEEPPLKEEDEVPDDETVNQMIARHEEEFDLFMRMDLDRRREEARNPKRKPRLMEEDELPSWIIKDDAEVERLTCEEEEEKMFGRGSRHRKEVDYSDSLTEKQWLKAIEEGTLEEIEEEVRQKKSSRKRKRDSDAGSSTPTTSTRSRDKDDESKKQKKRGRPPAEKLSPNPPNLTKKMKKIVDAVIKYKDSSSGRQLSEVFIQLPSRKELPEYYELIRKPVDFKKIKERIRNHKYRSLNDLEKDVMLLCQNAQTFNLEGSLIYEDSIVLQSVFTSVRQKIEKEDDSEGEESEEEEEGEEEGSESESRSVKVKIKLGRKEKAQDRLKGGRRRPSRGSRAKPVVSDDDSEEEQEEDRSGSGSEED

`Cc1ncsc1-c1ccc(CNC(=O)[C@@H]2C[C@@H](O)CN2C(=O)[C@@H](NC(=O)CCCCCNC(=O)c2ccc(COC[C@H](NC(=O)c3ccn(S(C)(=O)=O)c3)C(=O)Nc3nc(-c4ccccc4)cs3)cc2)C(C)(C)C)cc1` [Compound 232, (2S,4R)-4-hydroxy-1-[(2S)-2-[6-[(4-[[(2S)-2-[(1-methanesulfonylpyrrol-3-yl)formamido]-2-[(4-phenyl-1,3-thiazol-2-yl)carbamoyl]ethoxy]methyl]phenyl)formamido]hexanamido]-3,3-dimethylbutanoyl]-N-[[4-(4-methyl-1,3-thiazol-5-yl)phenyl]methyl]pyrrolidine-2-carboxamide]: in assay [1], the DC50 was more than 10 µM and the “BRM HiBit Degradation Maximum measured” value is reported as “C (‘C’ = Maximum degradation <50%)”. Also, in assay [2], the DC50 is more than 10 µM and the Dmax was less than 50%.
In the case of `CS(=O)(=O)n1ccc(C(=O)N[C@@H](COCc2ccc(C(=O)N3CCN(CCCCCOc4ccc5c(c4)C(=O)N(C4CCC(=O)NC4=O)C5=O)CC3)cc2)C(=O)Nc2nc(-c3ccccc3)cs2)c1` (stereo partly drawn) [Compound 233, (2S)-3-([4-[4-(5-[[2-(2,6-dioxopiperidin-3-yl)-1,3-dioxoisoindol-5-yl]oxy]pentyl)piperazine-1-carbonyl]phenyl]methoxy)-2-[(1-methanesulfonylpyrrol-3-yl)formamido]-N-(4-phenyl-1,3-thiazol-2-yl)propanamide], in assay [1], the DC50 was more than 10 µM and the “BRM HiBit Degradation Maximum measured” value was “C (‘C’ = Maximum degradation <50%)”. In assay [2], the DC50 is 0.1 to 1 µM and the Dmax was 50 to 75%.
For the molecule `CS(=O)(=O)n1ccc(C(=O)N[C@@H](COCc2ccc(C(=O)N3CC4(CCN(CCCNc5ccc6c(c5)C(=O)N(C5CCC(=O)NC5=O)C6=O)CC4)C3)cc2)C(=O)Nc2nc(-c3ccccc3)cs2)c1` (stereo partly drawn) [Compound 234, (2S)-3-([4-[7-(3-[[2-(2,6-dioxopiperidin-3-yl)-1,3-dioxoisoindol-5-yl]amino]propyl)-2,7-diazaspiro[3.5]nonane-2-carbonyl]phenyl]methoxy)-2-[(1-methanesulfonylpyrrol-3-yl)formamido]-N-(4-phenyl-1,3-thiazol-2-yl)propanamide], in assay [1], the DC50 was in the range of 0.1 to 1 µM; the “BRM HiBit Degradation Maximum measured” value was “B (‘B’ = Maximum degradation ≥50% and ≤75%)”. In addition, in assay [2], the DC50 lay within 0.1 to 1 µM and the Dmax was 50 to 75%.
`CS(=O)(=O)n1ccc(C(=O)N[C@@H](COCc2ccc(C(=O)N3CCN(CCCOc4ccc5c(c4)C(=O)N(C4CCC(=O)NC4=O)C5=O)CC3)cc2)C(=O)Nc2nc(-c3ccccc3)cs2)c1` (stereo partly drawn) [Compound 235, (2S)-3-([4-[4-(3-[[2-(2,6-dioxopiperidin-3-yl)-1,3-dioxoisoindol-5-yl]oxy]propyl)piperazine-1-carbonyl]phenyl]methoxy)-2-[(1-methanesulfonylpyrrol-3-yl)formamido]-N-(4-phenyl-1,3-thiazol-2-yl)propanamide]: in assay [1], the DC50 was more than 10 µM and the “BRM HiBit Degradation Maximum measured” value was “C (‘C’ = Maximum degradation <50%)”. For the same molecule, in assay [2], the DC50 is more than 10 µM and the Dmax is less than 50%.
Turning to `CS(=O)(=O)n1ccc(C(=O)N[C@@H](COCc2ccc(C(=O)NCCOCCOCCOCCNC(=O)COc3cccc4c3C(=O)N(C3CCC(=O)NC3=O)C4=O)cc2)C(=O)Nc2nc(-c3ccccc3)cs2)c1` (stereo partly drawn) [Compound 236, N-((2S)-3-((4-((1-((2-(2,6-dioxopiperidin-3-yl)-1,3-dioxoisoindolin-4-yl)oxy)-2-oxo-6,9,12-trioxa-3-azatetradecan-14-yl)carbamoyl)benzyl)oxy)-1-oxo-1-((4-phenylthiazol-2-yl)amino)propan-2-yl)-1-(methylsulfonyl)-1H-pyrrole-3-carboxamide], in assay [1], the DC50 is more than 10 µM and the “BRM HiBit Degradation Maximum measured” value is on record as “C (‘C’ = Maximum degradation <50%)”. Also, in assay [2], the DC50 is more than 10 µM and the Dmax was less than 50%.
Consider `CS(=O)(=O)n1ccc(C(=O)N[C@@H](COCc2ccc(C(=O)NCCOCc3cccc(COCCOc4ccc5c(c4)C(=O)N(C4CCC(=O)NC4=O)C5=O)c3)cc2)C(=O)Nc2nc(-c3ccccc3)cs2)c1` (stereo partly drawn) [Compound 237, N-[2-([3-[(2-[[2-(2,6-dioxopiperidin-3-yl)-1,3-dioxoisoindol-5-yl]oxy]ethoxy)methyl]phenyl]methoxy)ethyl]-4-[[(2S)-2-[(1-methanesulfonylpyrrol-3-yl)formamido]-2-[(4-phenyl-1,3-thiazol-2-yl)carbamoyl]ethoxy]methyl]benzamide], for which, in assay [1], the DC50 was 0.1 to 1 µM; the “BRM HiBit Degradation Maximum measured” value was “B (‘B’ = Maximum degradation ≥50% and ≤75%)”. In addition, in assay [2], the DC50 is 0.1 to 1 µM and the Dmax was 50 to 75%.
Consider `CS(=O)(=O)n1ccc(C(=O)N[C@@H](COCc2ccc(C(=O)N3CC(CCOc4cccc5c4C(=O)N(C4CCC(=O)NC4=O)C5=O)C3)cc2)C(=O)Nc2nc(-c3ccccc3)cs2)c1` (stereo partly drawn) [Compound 238, (2S)-3-([4-[3-(2-[[2-(2,6-dioxopiperidin-3-yl)-1,3-dioxoisoindol-4-yl]oxy]ethyl)azetidine-1-carbonyl]phenyl]methoxy)-2-[(1-methanesulfonylpyrrol-3-yl)formamido]-N-(4-phenyl-1,3-thiazol-2-yl)propanamide], for which, in assay [1], the DC50 was more than 10 µM and the “BRM HiBit Degradation Maximum measured” value is on record as “C (‘C’ = Maximum degradation <50%)”. In addition, in assay [2], the DC50 is more than 10 µM and the Dmax was less than 50%.
For the molecule `CS(=O)(=O)n1ccc(C(=O)N[C@@H](COCc2ccc(C(=O)N3CCN(CCCC#Cc4ccc5c(c4)C(=O)N(C4CCC(=O)NC4=O)C5=O)CC3)cc2)C(=O)Nc2nc(-c3ccccc3)cs2)c1.O=CO` (stereo partly drawn) [Compound 239, (2S)-3-[[4-(4-[5-[2-(2,6-dioxopiperidin-3-yl)-1,3-dioxoisoindol-5-yl]pent-4-yn-1-yl]piperazine-1-carbonyl)phenyl]methoxy]-2-[(1-methanesulfonylpyrrol-3-yl)formamido]-N-(4-phenyl-1,3-thiazol-2-yl)propanamide; formic acid], in assay [1], the DC50 was more than 10 µM and the “BRM HiBit Degradation Maximum measured” value is “C (‘C’ = Maximum degradation <50%)”. In assay [2], the DC50 is more than 10 µM and the Dmax was less than 50%.
Take `CS(=O)(=O)n1ccc(C(=O)N[C@@H](COCc2ccc(C(=O)NCCNc3ccc4c(c3)C(=O)N(C3CCC(=O)NC3=O)C4=O)cc2)C(=O)Nc2nc(-c3ccccc3)cs2)c1` (stereo partly drawn) [Compound 240, N-(2-[[2-(2,6-dioxopiperidin-3-yl)-1,3-dioxoisoindol-5-yl]amino]ethyl)-4-[[(2S)-2-[(1-methanesulfonylpyrrol-3-yl)formamido]-2-[(4-phenyl-1,3-thiazol-2-yl)carbamoyl]ethoxy]methyl]benzamide]: in assay [1], the DC50 is more than 10 µM and the “BRM HiBit Degradation Maximum measured” value is listed as “C (‘C’ = Maximum degradation <50%)”. Also, in assay [2], the DC50 is more than 10 µM and the Dmax was less than 50%.
As to `CS(=O)(=O)n1ccc(C(=O)N[C@@H](COCc2ccc(C(=O)NCCCCNc3ccc4c(c3)C(=O)N(C3CCC(=O)NC3=O)C4=O)cc2)C(=O)Nc2nc(-c3ccccc3)cs2)c1` (stereo partly shown) [Compound 242], in assay [1], the DC50 is 0.1 to 1 µM; the “BRM HiBit Degradation Maximum measured” value was “B (‘B’ = Maximum degradation ≥50% and ≤75%)”. In addition, in assay [2], the DC50 fell in the range of 0.1 to 1 µM and the Dmax is 50 to 75%.
With `CS(=O)(=O)n1ccc(C(=O)N[C@@H](COCc2ccc(C(=O)NCCCCCNc3ccc4c(c3)C(=O)N(C3CCC(=O)NC3=O)C4=O)cc2)C(=O)Nc2nc(-c3ccccc3)cs2)c1` (stereo partly drawn) [Compound 243, N-(5-[[2-(2,6-dioxopiperidin-3-yl)-1,3-dioxoisoindol-5-yl]amino]pentyl)-4-[[(2S)-2-[(1-methanesulfonylpyrrol-3-yl)formamido]-2-[(4-phenyl-1,3-thiazol-2-yl)carbamoyl]ethoxy]methyl]benzamide], in assay [1], the DC50 lay in the range of 0.1 to 1 µM; the “BRM HiBit Degradation Maximum measured” value is “B (‘B’ = Maximum degradation ≥50% and ≤75%)”. In assay [2], the DC50 was 0.1 to 1 µM and the Dmax is more than 75%.
With `CN(CCNC(=O)c1ccc(COCC(NC(=O)c2ccn(S(C)(=O)=O)c2)C(=O)Nc2nc(-c3ccccc3)cs2)cc1)CCNc1cccc2c1C(=O)N(C1CCC(=O)NC1=O)C2=O` [Compound 244, (N-[2-[(2-[[2-(2,6-dioxopiperidin-3-yl)-1,3-dioxoisoindol-4-yl]amino]ethyl)(methyl)amino]ethyl]-4-[[(2S)-2-[(1-methanesulfonylpyrrol-3-yl)formamido]-2-[(4-phenyl-1,3-thiazol-2-yl)carbamoyl]ethoxy]methyl]benzamide], in assay [1], the DC50 was more than 10 µM and the “BRM HiBit Degradation Maximum measured” value is “C (‘C’ = Maximum degradation <50%)”. In assay [2], the DC50 is more than 10 µM and the Dmax was less than 50%.
As for `CS(=O)(=O)n1ccc(C(=O)N[C@@H](COCc2ccc(C(=O)NCCC3CCN(c4ccc5c(c4)C(=O)N(C4CCC(=O)NC4=O)C5=O)CC3)cc2)C(=O)Nc2nc(-c3ccccc3)cs2)c1` (stereo partly drawn) [Compound 245, N-(2-[1-[2-(2,6-dioxopiperidin-3-yl)-1,3-dioxoisoindol-5-yl]piperidin-4-yl]ethyl)-4-[[(2S)-2-[(1-methanesulfonylpyrrol-3-yl)formamido]-2-[(4-phenyl-1,3-thiazol-2-yl)carbamoyl]ethoxy]methyl]benzamide], in assay [1], the DC50 was less than 0.1 µM and the “BRM HiBit Degradation Maximum measured” value is given as “A (‘A’ = Maximum degradation >75%)”. In assay [2], the DC50 is less than 0.1 µM and the Dmax is more than 75%.

The values above are taken from US12662479B2 (Foghorn Therapeutics Inc., priority 2020, dated 2026).
